Measurements published in patent publication US20230272012A1, “PEPTIDES AND METHODS OF USE” (REALTA LIFE SCIENCES, INC., priority 2020, published 2023).
Bridge positions count the residues as written; N and C are the ends. Square brackets hold non-standard residues; d marks the D form. Ends that are not written are not given here. Peptide text beside a SMILES is read from it. R8 = C=CCCCCCC[C@@](C)(N)C(=O)O; S5 = C=CCCC[C@](C)(N)C(=O)O; Sar = CNCC(=O)O

Legend:
[1] = test system: antibody-initiated complement activation (human O sera and AB red blood cells); assay: ABO incompatibility hemolytic assay of complement activity (CH50-type); format: cell-based; conditions: peptide 0.8 mg/ml (~0.5 mM)
Procedure: (§1) FIG. 1A-1B show PIC1 peptides' inhibition of complement activation in an ABO incompatibility assay. […] Inhibition of ABO incompatibility hemolysis in a CH50-type assay. Peptides are at a final concentration of 0.5 mM. Values are represented as a percent of the positive control, which consists of human O sera and AB red blood cells in GVBS^++ buffer. Data are the means of n=3 independent experiments±SEM.
(§2) For hemolytic complement assays, human red blood cells (RBCs) from type AB donors were purified, washed, and standardized to 1.0×10^9 cells/ml, as previously described. Human sera from type O donors at a 15% final concentration was combined with 0.5 mM of the peptides and the volume was brought up to 0.2 ml with GVBS^++ and 5.0×10^7 RBCs. The samples were incubated for 1 hour at 37° C. and then spun at 3,000 rpm for 5 minutes and the supernatant was collected and read at 412 nm. Values are represented as a percent of the positive control, which consists of human O sera and AB red blood cells in GVBS^++ buffer.
(§3) To assess the extent to which the peptide variants inhibit antibody-initiated complement activation, an ABO incompatibility ex vivo assay was utilized in which purified erythrocytes from a ‘type AB+’ donor are incubated with sera from a ‘type O’ subject containing anti-A and anti-B antibodies. Peptides were tested at a concentration of 0.8 mg/ml (˜0.5 mM). […] D-amino acid variants PA-0127 and PA-0133 decreased ABO hemolysis by 20% (P value=0.083) and 25% (P value=0.076), respectively. […]

[2] = as above; format: cell-based, human; conditions: human; peptide 0.8 mg/ml (~0.5 mM); read-out: decrease of ABO hemolysis compared to PA-C9Sar
Procedure: as §1, §2, §3

MPO = target: T1, MPO (Homo sapiens, UniProt P05164); assay: MPO activity assay (TMB oxidation); format: biochemical; conditions: half-maximal values from dose-response curves
T1 construct: purchased Lee BioSolutions (Maryland Heights, Mo.)
T1 sequence (P05164 49-745): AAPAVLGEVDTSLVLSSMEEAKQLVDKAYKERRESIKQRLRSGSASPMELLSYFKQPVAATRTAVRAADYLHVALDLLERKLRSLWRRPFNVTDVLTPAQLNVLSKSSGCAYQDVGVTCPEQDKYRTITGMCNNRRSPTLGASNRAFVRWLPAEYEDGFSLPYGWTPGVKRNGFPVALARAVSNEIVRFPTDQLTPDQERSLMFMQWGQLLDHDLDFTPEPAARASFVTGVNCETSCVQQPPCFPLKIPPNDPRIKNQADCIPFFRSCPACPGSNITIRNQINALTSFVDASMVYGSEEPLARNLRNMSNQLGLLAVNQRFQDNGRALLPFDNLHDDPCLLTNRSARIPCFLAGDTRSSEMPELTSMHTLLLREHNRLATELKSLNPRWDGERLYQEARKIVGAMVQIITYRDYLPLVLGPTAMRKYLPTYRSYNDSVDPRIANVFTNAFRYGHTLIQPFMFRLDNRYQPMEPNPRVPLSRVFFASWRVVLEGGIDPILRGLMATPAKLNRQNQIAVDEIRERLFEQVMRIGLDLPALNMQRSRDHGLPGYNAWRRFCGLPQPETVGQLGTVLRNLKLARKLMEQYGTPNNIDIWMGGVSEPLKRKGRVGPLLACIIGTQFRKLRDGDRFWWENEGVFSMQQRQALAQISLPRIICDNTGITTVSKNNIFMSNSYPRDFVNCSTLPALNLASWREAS
Procedure: The MPO activity assay was performed as previously described. Briefly, peptides were diluted to 12 mg/ml and serially titrated in a 96 well plate at a volume of 0.02 ml. MPO was diluted to 20 μg/ml and 0.02 ml was added to the titrated peptides. TMB (3,30,5,50-tetramethylbenzidine) (0.1 ml) was added to each well for 2 minutes, followed by 0.1 ml of 2.5 N H2SO4 for another 2 minutes, and then read on a 96 well plate reader (BioTek) at 450 nm.
The inventors also assessed the ability of RLS-0127* and RLS-0133* to inhibit MPO activity as determined by inhibition of oxidation of TMB in a plate-based assay. […] Additionally, the inventors assessed the ability of RLS-0127* and RLS-0133* to bind C1q in a plate-based assay in which C1q is coated on the plate and increasing amounts of the peptides are added, followed by primary antibody to the peptides and secondary antibody conjugated to HRP. The plate was then incubated with TMB to give a […] signal that is detected at a wavelength of 450 nm in a plate reader.

PD-1/PD-L1 interaction = target: T2, PD-1/PD-L1 interaction (Homo sapiens, UniProt Q15116+Q9NZQ7); assay: PD-1/PD-L1 Blockade Bioassay (Promega); format: cell-based; conditions: increasing peptide concentrations
T2 construct: host or cells: PD-1 effector cells; PD-L1 aAPC/CHO-K1 cells
Procedure: PD-1 effector cells were incubated with PD1-L1 aAPC cells in the absence or presence of increasing concentrations of anti-PD-1 antibody (positive control) and select PIC1 peptides. Luminescence was detected in luminometer plate reader.
To assess if PIC1 peptides could block PD-1 inhibitory activity in a cell-based assay, select peptides were screened in the PD-1/PD-L1 Blockade Bioassay (Promega). The PD-1/PD-L1 Blockade Bioassay is a biologically relevant MOA-based assay that can be used to measure the potency and stability of antibodies and other biologics designed to block the PD-1/PD-L1 interaction. This bioluminescent cell-based assay is used to measure the potency and stability of molecules targeting PD-1 and consists of two genetically engineered cell lines: aAPC/CHO-K1 Cells are CHO-K1 cells with an engineered cell surface protein designed to activate cognate TCRs in an antigen-independent manner. When the two cell types are co-cultured, the PD-1/PD-L1 interaction inhibits TCR signaling and NFAT-mediated luciferase activity. Addition of an inhibitory molecule that blocks either PD-1 or PD-L1 releases the inhibitory signal and results in TCR signaling and NFAT-mediated luciferase activity.

[3] = test system: purified human Pan T-cells; assay: T-cell exhaustion protocol (Dynabeads re-stimulation); format: cell-based; conditions: peptides 2 mg/ml at each stimulation; supernatant ELISA
Procedure: Purified human pan-T-cells were subject to stimulation with Dynabeads every 48 hours over the period of 8 days with cells also receiving PIC1 peptides (2 mg/ml) at each stimulation. Cells not receiving Dynabeads were run in parallel to assess background levels of Caspase 3/7 signal. At the eighth day, cells were harvested and the levels of Caspase 3/7 determined by ELISA.
Purified human pan-T-cells were subject to stimulation with Dynabeads every 48 hours over the period of 8 days with cells also receiving PIC1 peptides (2 mg/ml) at each stimulation. Cell supernatants were collected at each stimulation and levels of IL-2 and IFN-gamma assayed by ELISA.
T-cell exhaustion is a form of T-cell dysfunction that occurs in cancer. It is defined by poor effector function, reduction in cytokine release (e.g., IL-2, TNF-alpha, IFN-gamma), sustained expression of inhibitory receptors (e.g., PD-1, LAG-3, CD244, CD160) with the progressive loss of effector function due to overstimulation. Exhaustion prevents optimal control of tumor growth. Exhausted T cells are prevalent in the tumor microenvironment (TME) and can lead to T-cell apoptosis. T-cell exhaustion is reversible, and pharmaceutical inhibition of T-cell exhaustion has been considered a promising strategy by many cancer researchers. To ascertain if PIC1 peptides could reverse T-cell exhaustion and increase T cell viability and effector function, a T-cell exhaustion protocol was developed. To induce T-cell exhaustion, purified human Pan T-cells were stimulated with T-Activator CD3/CD28 Dynabeads and cells are washed and re-stimulated every 48 hours. PIC1 peptides were added to the cells after each stimulation with Dynabeads. After three to four stimulations cells were harvested for readouts which consisted of assessing T-cell apoptosis by measuring Caspase 3/7 levels and production of cytokines IL-2 and IFN-gamma which is indicative of T-cell functionality. […] To further evaluate if PIC1 peptides could restore T-cell functionality in cells that have undergone the exhaustion protocol, the inventors next assessed production of cytokines IL-2 and IFN-gamma. Supernatants from the cells after each stimulation were collected and the cytokines measured by ELISA. […] The lower level of IFN-gamma signal compared to IL-2 was consistently seen in this assay.

T2 sequence (Q15116 25-288): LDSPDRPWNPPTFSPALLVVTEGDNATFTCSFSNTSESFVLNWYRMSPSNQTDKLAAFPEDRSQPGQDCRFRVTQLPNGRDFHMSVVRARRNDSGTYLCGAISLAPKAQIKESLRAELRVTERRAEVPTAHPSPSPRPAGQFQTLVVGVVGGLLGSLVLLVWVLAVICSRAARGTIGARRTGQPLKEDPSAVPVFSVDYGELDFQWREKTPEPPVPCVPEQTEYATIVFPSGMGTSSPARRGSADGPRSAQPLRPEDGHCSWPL
T2 sequence (Q9NZQ7 19-290): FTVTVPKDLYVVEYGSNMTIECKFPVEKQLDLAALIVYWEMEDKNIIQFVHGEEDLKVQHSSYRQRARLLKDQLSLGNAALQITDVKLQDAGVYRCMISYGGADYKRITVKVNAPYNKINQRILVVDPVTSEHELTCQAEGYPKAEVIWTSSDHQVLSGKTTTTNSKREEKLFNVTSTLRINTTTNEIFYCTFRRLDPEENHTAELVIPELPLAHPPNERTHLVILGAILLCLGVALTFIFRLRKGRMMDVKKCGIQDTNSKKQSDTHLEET

Row | Molecule | MPO inhibition compared with PA-C9Sar (MPO) | inhibition of PD-1/PD-L1 inhibitory signaling (luminescence) (PD-1/PD-L1 interaction) | further results
1 | CC[C@H](C)[C@H](N)C(=O)N[C@@H](C)C(=O)N[C@@H](CC(C)C)C(=O)N[C@H](C(=O)N[C@@H](CC(C)C)C(=O)N[C@@H](CCC(=O)O)C(=O)N1CCC[C@H]1C(=O)N[C@H](C(=O)N(C)CC(=O)N[C@@H](CS)C(=O)N[C@@]1(C)CCCC=CCCC[C@@](C)(C(=O)O)NC(=O)[C@H](C)NC(=O)[C@H](CCCNC(=N)N)NC(=O)[C@H](CCC(=O)O)NC1=O)[C@@H](C)CC)[C@@H](C)CC [PA-0155] (H-IALILEPI[Sar]C[S5]ERA[S5]-OH; staple 11-15) | decreased MPO inhibition | did not show PD-1/PD-L1 inhibitory activity | inhibition of complement in the hemolytic assay compared to PA-C9Sar [1]: significant increase in complement inhibitory activity; decrease in ABO hemolysis compared to reference peptide at 1 h [2]: 64%
2 | IALILEP(Sar)CS5QERS5dA (IALILEP[Sar]C[S5]QER[S5][dA]; bridges not given here; also: S5 10-14 may or may not be stapled) [PA-0145] |  |  | increase in complement inhibition compared to PA-I8Sar [1]: ~10%
3 | IALILEP(Sar)CS5QdERS5A (IALILEP[Sar]C[S5]Q[dE]R[S5]A; staple 10-14) [PA-0144] |  | did not show PD-1/PD-L1 inhibitory activity | 
4 | IALILEP(Sar)dCS5QERS5A (IALILEP[Sar][dC][S5]QER[S5]A; staple 10-14) [PA-0143] |  | did not show PD-1/PD-L1 inhibitory activity | 
5 | IALILEPI(Sar)CQEdRAA (IALILEPIXCQERAA; D-arginine, sarcosine; MOD_RES (9)..(9) Sarcosine; MOD_RES (13)..(13) D-amino acid) [PA-0167] |  |  | inhibition of complement in the hemolytic assay compared to PA-C9Sar [1]: slightly less well
6 | IALILEPdI(Sar)CQERAA (IALILEPIXCQERAA; D-isoleucine, sarcosine; MOD_RES (8)..(8) D-amino acid; MOD_RES (9)..(9) Sarcosine) [PA-0163] | decreased MPO inhibition |  | 
7 | IALILEdPI(Sar)CQERAA (IALILEPIXCQERAA; D-proline, sarcosine; MOD_RES (7)..(7) D-amino acid; MOD_RES (9)..(9) Sarcosine) [PA-0162] |  | did not show PD-1/PD-L1 inhibitory activity | inhibition of complement in the hemolytic assay compared to PA-C9Sar [1]: slightly less well; IL-2 signal at stimulation 2 [3]: showed an IL-2 signal at stimulation 2
8 | IALIR8EP(Sar)CCQS5RAA (IALI[R8]EP[Sar]CCQ[S5]RAA; bridges not given here; also: R8/S5 5-12 may or may not be stapled) [PA-0136] |  |  | inhibition of ABO incompatible hemolysis compared to PA-I8Sar [1]: same level as the parent molecule
9 | IALIR8EPI(Sar)CQS5RAA (IALI[R8]EPI[Sar]CQ[S5]RAA; staple 5-12) [PA-0148] | decreased MPO inhibition |  | 
10 | IALIS5EP(Sar)S5CQERAA (IALI[S5]EP[Sar][S5]CQERAA; bridges not given here; also: S5 5-9 may or may not be stapled) [PA-0140] |  |  | inhibition of ABO incompatible hemolysis compared to PA-I8Sar [1]: lesser extent; MPO inhibition compared with PA-I8Sar (MPO): reduced inhibition of MPO activity
11 | IAS5ILES5I(Sar)CQERAA (IA[S5]ILE[S5]I[Sar]CQERAA; staple 3-7) [PA-0153] | decreased MPO inhibition |  | 
12 | RLS-0142: PIC1 peptide screened in the bioassay; no sequence printed (IALILEP[Sar][dC][S5]QER[S5]A; staple 10-14) |  | did not show PD-1/PD-L1 inhibitory activity | 
13 | S5ALIS5EP(Sar)CCQERAA ([S5]ALI[S5]EP[Sar]CCQERAA; bridges not given here; also: S5 1-5 hydrocarbon staple: may or may not be stapled) [PA-0138] |  |  | inhibition of ABO incompatible hemolysis compared to PA-I8Sar [1]: lesser extent
14 | S5ALIS5EPI(Sar)CQERAA ([S5]ALI[S5]EPI[Sar]CQERAA; staple 1-5) [PA-0151] | decreased MPO inhibition |  | 
15 | dIALILEPI(Sar)CQERAA (IALILEPIXCQERAA; D-isoleucine, sarcosine; MOD_RES (1)..(1) D-amino acid; MOD_RES (9)..(9) Sarcosine) [PA-0156] |  | did not show PD-1/PD-L1 inhibitory activity | 
